According to patent US20260327655A1, “SMALL-MOLECULE REGULATED ALTERNATIVE SPLICING” (priority 2023, published 2026):

Assays:
[1] = test system: RS3-13 minigene (Firefly Luciferase), HEK-293T cells; assay: Luciferase induction assay, RS3-13 with splice modulator compounds in HEK-293T cells; assay type: cell-based; conditions: Homo sapiens, 18 hours, n of 3, read-out: Mean fold-induction of luciferase (relative to vehicle control)
Experimental: (§1) HEK-293T cells were cultured in DMEM+10% FBS, collected after trypsinization, and then dispensed into 96-well plates (cell culture-treated). Each well of the plate was seeded with 1.0×10^5 cells in 100 μL culture medium. After a 1-hour incubation in a tissue culture incubator (5% CO2, 37 degrees C.), plasmid DNA was complexed with a transfection reagent, such as Lipofectamine 3000, and added to respective wells on the plate. Each well received an equivalent of 100 ng of plasmid DNA complexed with 0.15 μL Lipofectamine. Triplicate wells were used for each condition tested in the experiment. The plasmid utilized in the experiment encoded a CMV promoter upstream of RS3-13 that controlled the expression of a Firefly Luciferase gene followed by a SV40 polyadenylation signal. After a 10-minute incubation at room temperature, either DMSO vehicle or specified compound at specified dose was added to the wells of the plate. Plates were then incubated for 18 hours in a tissue culture incubator. Endpoint analysis was performed by adding 100 uL Steady-Luc Firefly Luciferase substrate to each well of the assay plate. After mixing, the liquid contents of each was transferred to a 96-well plate, mixed again for 2 min on an orbital shaker, and incubated at room temperature for 5 min. Finally, the luminescent signal from each well was measured with a with PerkinElmer Envision plate reader. The results of this assay show RS3-13 responded to the majority of the splice modulator compounds used (FIG. 14D) Bars represent mean+/−standard deviation of 3 wells normalized to vehicle controls.

[2] = test system: RS1-10 minigene (Firefly Luciferase), HEK-293T cells; assay: Luciferase induction assay, RS1-10 with splice modulator compounds in HEK-293T cells; assay type: cell-based; conditions: Homo sapiens, 18 hours, n of 3, read-out: Mean fold-induction of luciferase (relative to vehicle control)
Experimental: as §1, with “upstream of the RS I-10 variant that controlled” for “upstream of RS3-13 that controlled”, “assay show RS1-10 responded to” for “assay show RS3-13 responded to”, “compounds used in a dose responsive manner (FIG. 9C).” for “compounds used (FIG. 14D)”, “manner (FIG. 9C). Bars represent” for “used (FIG. 14D) Bars represent”

[3] = test system: RS2-3 minigene (Firefly Luciferase), HEK-293T cells; assay: Luciferase induction assay, RS2-3 with splice modulator compounds in HEK-293T cells; assay type: cell-based; conditions: Homo sapiens, 18 hours, n of 3, read-out: Mean fold-induction of luciferase (relative to vehicle control)
Experimental: as §1, with “of the RS2-3 variant” for “of RS3-13”, “show RS2-3” for “show RS3-13”, “(FIG. 13C)” for “(FIG. 14D)”

[4] = test system: RS2-1 and variants; assay: Luciferase induction assay, RS2-1 and variants in HEK-293T cells; assay type: cell-based, human; conditions: 300 nM (FIG. 13A), 18 hours, FIGS. 13A, 13B
Experimental: HEK-293T cells were cultured in DMEM+10% FBS, collected after trypsinization, and dispensed into 96-well plates (cell culture-treated). Each well of the plate was seeded with 1.0×10^5 cells in 100 μL culture medium. After a 1-hour incubation in the tissue culture incubator (5% CO2, 37° C.), plasmid DNA was complexed with a transfection reagent, such as Lipofectamine 3000, and added to respective wells on the plate. Each well received 100 ng of plasmid DNA complexed with 0.15 μL Lipofectamine 3000. The plasmids utilized in the experiment encoded a CMV promoter upstream of the RS2-1 construct and variants that controlled the expression of a Firefly Luciferase gene followed by a SV40 polyadenylation signal. After a 10-minute incubation at room temperature, either DMSO vehicle or 100B at specified doses was added to the wells of the plate. Plates were then incubated for 18 hours in a tissue culture incubator. Endpoint analysis was performed by adding 100 μL of a Luciferase substrate, such as Steady-Luc Firefly Luciferase substrate, to each well of the assay plate. The liquid contents of each was transferred to a 96-well plate, mixed again for 2 min on an orbital shaker, and incubated at room temperature for 5 min. Finally, the luminescent signal from each well was measured with a plate reader. […]

Cc1cn2cc(-c3nc(=O)n4cc(N5CCNCC5)ccc4n3)cc(F)c2n1.Cl [Compound 100B, 2-(8-fluoro-2-methylimidazo[1,2-a]pyridin-6-yl)-7-(piperazin-1-yl)-4H-pyrido[1,2-a][1,3,5]triazin-4-one hydrochloride]
fold induction at 0.1 µM ([1]; RS3-13, 100 nM): 10
fold induction at 1 µM ([1]; RS3-13, 1,000 nM): 42.4
fold induction at 0.1 µM ([2]; RS1-10, 100 nM): 11.9
fold induction at 1 µM ([2]; RS1-10, 1,000 nM): 57.1
fold induction at 0.1 µM ([3]; RS2-3, 100 nM): 9.79
fold induction at 1 µM ([3]; RS2-3, 1,000 nM): 26.4
fold induction of luciferase compared to vehicle, constructs vs RS2-1 [4]: The majority of the constructs show higher fold induction of luciferase
